In article PMC12040169 (PLOS Biology, 2025):

experiment: in vitro; settings: human, hela cells, % viability

Structure (SMILES)	viability at 28.5 h, 10 µM
CCc1nc2ccc(C(=O)NC3=NC(=O)CS3)cn2c1N(CC)C(C)=O [CBK145839]	100%
CC1CCN(CC[C@H]2CCCN2S(=O)(=O)c2cccc(O)c2)CC1 [CBK074118C]	112%
O=c1cnnc(Nc2cccc(Cl)c2Cl)[nH]1 [CBK287897]	93%
COc1ccc2ncc(C(=O)O)c(Nc3ccccc3C)c2c1 [CBK269522C]	104%
O=S(=O)(NCC(Sc1ccc(F)cc1)c1ccccc1)c1ccc(Cl)cc1 (centres unmarked) [CBK266306]	96.8%
O=C(Nc1nccc(N2CCNCC2)n1)C1CCCC1 [CBK004302T]	113%
COc1ccc(NC(=O)CC2NC(=O)NC2=O)cc1 (centres unmarked) [CBK267279]	86.5%
CC(=O)c1ccc(CN2CCN(S(=O)(=O)c3ccc(C(F)(F)F)cc3Cl)CC2)cc1 [CBK063072]	96%
c1cc(CNCCN2CCOCC2)cs1 [CBK001894]	105%
COCc1ccc(C(=O)N2CCCC(c3cc4ncccc4[nH]3)C2)o1 (centres unmarked) [CBK282106]	87%
CC(C)(C)NC(=O)[C@@H]1CNC[C@]12Cc1ccccc1C(=O)N2 [CBK285294]	103%
COc1ccc(-c2c(O)n[nH]c2CCC2CCCC2)cc1 [CBK075126]	88.1%
CCCN(Cc1cccs1)C1Cc2cc(OC)c(OC)cc2C1 [CBK017567C]	96.8%
O=S(=O)(N[C@H]1CO[C@H]2[C@@H]1OC[C@@H]2n1cc(-c2ccccn2)nn1)c1cccs1 [CBK289508]	88.7%
Cc1ccccc1C(=O)Nc1cc(NC(=O)c2ccccc2C)cc(C(=O)O)c1 [CBK262007]	109%
Cn1c(CN2CCN(C3CCCCC3)C(=O)C2)nc2ccccc21 [CBK281893]	90.9%
COc1ccc(-c2cnn(-c3cncnc3)n2)cc1 [CBK112763]	94.5%
CN(C)CCCC(=O)Nc1ccc2c(ccn2Cc2ccccc2)c1 [CBK159740]	91.2%
CSc1cc(CC(C)(C)C)c2cccc(F)c2n1 [CBK018791]	99.8%
COc1cc(/C=C2\SC(=N)NC2=O)ccc1OCC(=O)O [CBK262675]	88.4%
OCCN1CCN(c2ncnc3scc(-c4ccccc4)c23)CC1 [CBK287582]	94.6%
COc1cc(C)nc(NN)n1 [CBK262078]	108%

Structure (SMILES)	viability at 28.5 h, 10 µM
COc1ccc(C(=O)C2=C(O)C(=O)N(Cc3cccnc3)C2c2ccc(OC)cc2OC)c(C)c1 (centres unmarked) [CBK264928]	89.7%
COc1ccc(Nc2cc(-c3cc4ccccc4o3)ncn2)c(C)c1 [CBK091040]	87.7%
C(=C\c1ccccc1)/CSc1nnc(-c2cnccn2)n1Cc1ccco1 [CBK267587]	119%
COc1ccc(C2(CNC(=O)C(O)COc3ccccc3)CCCC2)cc1OC (centres unmarked) [CBK014053]	88.5%
Cc1cc(S(=O)(=O)Nc2cccc(Br)c2)c(C)cc1Cl [CBK043652]	80.8%
OCCC1CNCCN1CC1CCCCC1 (centres unmarked) [CBK270115]	97.2%
CCCCC(CC)CN1CNC(=S)NC1 (centres unmarked) [CBK265404]	105%
Cc1ccccc1-c1cc(C(=O)N(C)C)c2cnn(C(C)C)c2n1 [CBK306245]	98.6%
N#CCCCN1CCC(Oc2nccnc2OCc2ccc(Br)cc2F)CC1 [CBK153647]	94.7%
O=C(CSc1nc2ccccc2n1Cc1ccccc1)N/N=C/c1ccco1 [CBK263174]	89.6%
COc1cccc(COc2nccnc2-c2ccc(C)cc2C)c1OC [CBK106995]	93.2%
COc1ccccc1NC(=O)Cn1cnc2sc(C(=O)NC(C)C)c(C)c2c1=O [CBK071847]	93%
Cc1c(C)n(C)c2ccc(C(=O)NCCC(=O)N3CCOCC3)cc12 [CBK281669]	65.8%
Cc1cc(C)c(COc2nccnc2OC2CCN(CCCC#N)CC2)c(C)c1 [CBK161575]	91.6%
Clc1ccc(OCCCn2ccnc2)c(CN2CCSCC2)c1 [CBK307194]	104%
COC(=O)[C@@H]1Cc2ncn(C(C)C)c2CN1C(=O)C1CCCCC1 [CBK288989]	98.9%
COc1cc(OC)c(NS(=O)(=O)c2cc(C(=O)O)ccc2C)cc1Cl [CBK296105]	101%
Fc1ccccc1/C=N/Nc1nccnc1Cl [CBK261711]	87.8%
CCCCCOc1ccc(Nc2cc(-c3ccc(N(C)C)cc3)ncn2)cc1 [CBK090889]	106%
Cc1ccc(Cl)cc1NC(=O)CC(C(=O)O)N(C)C (centres unmarked) [CBK267105]	112%
Cc1cc(C)n(Cc2cc(C(=O)NCC(C)Oc3cccnc3)n[nH]2)n1 (centres unmarked) [CBK307609]	85.9%
COC(=O)c1ccc(/C=N/NC(=O)CCc2c(C)n[nH]c2C)cc1 [CBK262904]	117%

Structure (SMILES)	viability at 28.5 h, 10 µM
CC12CCCN1CCCN2C(=O)c1c[nH]c2ccccc12 (centres unmarked) [CBK169228]	87.2%
CC(C)(C)c1[nH]c2ncccc2c1CN1CCCC(CO)C1 (centres unmarked) [CBK285342]	99.1%
NS(=O)(=O)c1ccc(C(=O)Nc2cnc(-c3ccc(F)cc3)c(-c3ccsc3)n2)cc1 [CBK036998]	98.8%
CC(=O)Nc1ccc(Oc2c(F)c(F)c(/C=C/CN3CCOCC3)c(F)c2F)cc1 [CBK269302C]	89%
N=C(N)NS(=O)(=O)c1ccc(N/C=C\C(=O)c2ccc3ccccc3c2)cc1 [CBK263374]	98.6%
CCCS(=O)(=O)n1c(=O)n(CC(=O)c2ccc(N(CC)CC)cc2)c2ccccc21 [CBK106504]	105%
Cc1cc2c(s1)c1cnn(CC(=O)NCC3CC3)c(=O)c1n2C [CBK284222]	91.2%
O=C(c1ccc(F)cc1)C1CCN(CCc2c[nH]c3ccccc23)CC1 [CBK149125]	96.3%
N#Cc1ccnc(SCC(=O)Nc2ccc(CN3CCOCC3)cc2)c1 [CBK306010]	103%
O=C(O)C1CCCN1C(=O)NCc1c(Cl)cccc1Cl (centres unmarked) [CBK161383]	88.1%
O=C(c1ccc(F)cc1)N1CCC(Oc2nccnc2OCc2ccc(Cl)c(Cl)c2)CC1 [CBK160721]	85.9%
CCOC(=O)c1sc(NCCOc2cccc(C)c2)nc1C [CBK265574]	85.2%
Cc1ccc(-n2ncc3c(NCCc4ccc(S(N)(=O)=O)cc4)ncnc32)c(C)c1 [CBK265676]	92.4%
O=C(O)CCC(=O)N1N=C(c2c(-c3ccccc3)c3cc(Cl)ccc3[nH]c2=O)CC1c1ccccn1 (centres unmarked) [CBK296106]	97.3%
CSc1nnc(-c2cccc(C)c2)n1CC1CCCCC1 [CBK085418]	100%
O=[N+]([O-])c1ccc(COc2cccc(/C=N/Nc3nc4ccccc4s3)c2)cc1 [CBK262160]	87.8%
COC(=O)c1scc(NS(=O)(=O)c2ccc(Cl)cc2Cl)c1C(=O)OC [CBK026681]	89.4%
NS(=O)(=O)c1ccc(CN2CCCC2=O)cc1 [CBK288420]	108%
Cc1cccc(-c2ccc(CC3(C(N)=O)CCN(C(=O)COc4ccccc4)CC3)cc2)c1 [CBK285797]	93.6%
NC(=O)CSc1nnc(COc2cccc(Cl)c2)n1-c1ccccc1 [CBK267685]	88.9%
CC(=O)Nc1cccc(NC(=S)Nc2ccc(S(N)(=O)=O)cc2)c1 [CBK267091]	98.4%
Cc1ccccc1C1(O)CCN(CC(O)c2ccc3c(c2)OCCCO3)CC1 (centres unmarked) [CBK286332]	103%

Structure (SMILES)	viability at 28.5 h, 10 µM
O=S(=O)(c1cccc(S(=O)(=O)N2CCOCC2)c1)c1ccc(Cl)c(S(=O)(=O)N2CCOCC2)c1 [CBK261260]	104%
O=C(c1ccc([N+](=O)[O-])cc1)C12CN3CN(CN(C3)C1)C2 [CBK011238]	87.1%
Nc1ncc(-c2ccco2)nc1-c1ccc(C=O)cc1 [CBK064095]	102%
NC(=O)[C@@H]1C[C@@H](O)[C@H](O)[C@H]2[C@@H]1N(c1ccc(Cl)cc1)C(=S)N2Cc1cccs1 [CBK288930]	94.7%
Cc1nn(C(C)C(=O)Nc2cc(C(F)(F)F)ccc2Cl)c(C)c1[N+](=O)[O-] (centres unmarked) [CBK268697]	88.5%
CCC1CCc2c(sc(NC(=O)c3cc(-c4ccc(Cl)s4)nc4ccccc34)c2C(N)=O)C1 (centres unmarked) [CBK262646]	88.9%
CC(C)Nc1cc(OC2CCOC2)ncn1 (centres unmarked) [CBK115888]	93.4%
O=C(Nc1cc(Cl)ccc1C(=O)O)c1ccc2c(c1)C(=O)N(Cc1cccnc1)C2=O [CBK266455]	89.9%
COc1cc(C(=O)CCN2CCCCC2)cc(OC)c1OC [CBK015639C]	107%
c1cnn(C2CCN(Cc3ccc(Oc4cnccn4)cc3)CC2)c1 [CBK306417]	85.7%
Cc1ccc(-c2nnc([C@H]3CCN(C(=O)NCc4ccccc4)C3)o2)cc1 [CBK289411]	93%
CCN(CCO)c1ccc(Nc2cc(-c3cc4ccccc4o3)ncn2)cc1 [CBK090999]	94.8%
CCn1cc(C(=O)O)c(=O)c2cnc(N3CCNCC3)nc21 [CBK041585]	90.8%
COC(=O)c1sccc1OCc1nnc(-c2ccc(Cl)c(Cl)c2)o1 [CBK067742]	96.5%
c1ccc(CCNc2nccnc2-c2ccoc2)nc1 [CBK036790]	86.1%
N/C(Cc1ccc([N+](=O)[O-])cc1)=N\OC(=O)COc1cccc2ccccc12 [CBK262994]	92.8%
CCN1CCC2CN(CCCC(c3ccc(F)cc3)c3ccc(F)cc3)CCN2C1=O (centres unmarked) [CBK024996]	92.7%
O=C(NCc1ccco1)NC(=O)c1ccc(Cl)cc1 [CBK269461]	95.8%
CCCC/C=C/c1nccnc1N[C@@H](CO)C(C)C [CBK037514]	101%
Cc1ccc(C2(C(=O)N3CCC(O)(c4ccccn4)CC3)CC2)cc1 [CBK283754]	96.4%
COc1cccc(CN2CCN(S(=O)(=O)c3ccccc3[N+](=O)[O-])CC2)c1OC [CBK264162]	87.4%
O=C(O)CN1C(=O)S/C(=C\c2ccc([N+](=O)[O-])o2)C1=O [CBK017858]	97.7%

same assay, conditions: human, hela cells, % viability, bulk resorufin, single well

Structure (SMILES)	viability at 28.5 h, 10 µM
O=C(Nc1ccc2c(c1)COC1(CCNCC1)O2)c1cc2cc(Cl)ccc2[nH]1 [CBK091529T]	71.3%
